The values below come from paper PMC5839409, “Targeting intracellular B2 receptors using novel cell-penetrating antagonists to arrest growth and induce apoptosis in human triple-negative breast cancer” (Oncotarget, 2018).

Like-named read-outs stand apart in the source and are kept apart here. Square brackets hold non-standard residues; d marks the D form. Ends that are not written are not given here. Peptide text beside a SMILES is read from it. Oic = O=C(O)[C@@H]1C[C@@H]2CCCC[C@@H]2N1; Hyp = O=C(O)[C@@H]1C[C@@H](O)CN1; dTic = O=C(O)[C@H]1Cc2ccccc2CN1; 2Thi = N[C@@H](Cc1cccs1)C(=O)O

Series [1] relates to MDA-MB-231 cells. As to the kind of experiment: MTT cytotoxicity (cell viability) assay. Format: cell-based, human. As to conditions: for cytotoxic effect: at a concentration of 100 µM. As for the experimental part: (§1) Cell proliferation assay on MDA-MB-231 cells was determined with colorimetric MTT as we described. Briefly, cells were seeded in a 96 wells plate at 2,000 cells/well in DMEM media supplemented with 10% FBS for 24h at 37°C. Cells were then incubated with and without the B2RAs at the indicated concentrations for the time shown. At the end of treatment period, MTT (0.25 mg/ml) was added to the cells and incubated for 1h30 at 37°C. Thereafter, the cell medium was removed, the formazan product solubilized in acidified isopropanol (100 µl of 1N HCl/anhydrous isopropanol 1:25) and the absorbance determined at 570 nm with an ELISA microplate reader (Spectra Max Plus, Molecular Devices, Sunnyvale, CA). For assessing the cytotoxicity of B2RAs and chemotherapeutic agents (carmustine, doxorubicin, carboplatin, temozolomide and paclitaxel), cells were grown to confluency in multi-well plates and exposed to starving media (DMEM without FBS) for 24h before beginning of the antagonist treatment. Cells were then incubated with MTT and treated exactly as described above. Cell viability was expressed as a percentage of optical density (OD) values obtained upon treatment relative to control.

The test system of series [2] is MDA-MB-231 cells. The series is described as follows: Anchorage-dependent clonogenic assay. Format: cell-based, human. Conditions: for colony formation (antagonist effect): 1 to 100 µM (FR173657 up to 25 µM), 10-14 days. The procedure:
MDA-MB-231 cells were plated at 200 cells/well in a six-well dish in 2 ml DMEM medium containing 10% FBS. […] After 10 to 14 days, colonies were fixed and stained with 0.5% methylene blue in 50% ethanol. Excess of staining solution was removed carefully with tap water and the plates were dried overnight. Colony counting and densitometric analyses (to measure total colony numbers and surface areas) were performed using the Image Pro Plus 5.1 software.

Series [3] relates to MDA-MB-231 cells. As to the kind of experiment: Cellular incorporation of B2RAs by LC-MS/MS. As to conditions: 2.5 µM antagonist, 37°C.
Protocol: Permeability of MDA-MB-231 cells to B2RAs was evaluated by either confocal microscopy or LC-MS/MS analyses. […] Mass spectrometry. […] At the end of treatments, cells underwent an acid wash to facilitate the release of surface bound ligands. Cell contents were released from hypotonic lysis using a 40:60 mixture of 15 mM Tris-HCl pH 7.4 / methanol. Cell lysates were next sonicated and subjected to protein precipitation following addition of 0.1% v/v formic acid. Precipitated proteins were removed by centrifugation and supernatants were concentrated using a Speedvac centrifugal evaporator. The sample was subjected to quantification using LC-MS/MS on a triple quadrupole mass spectrometer (Agilent G6410B). A calibration curve made from nine different concentrations of the reference compounds dissolved in suitable HPLC mobile phase solvents, was used to estimate antagonist intracellular content in each sample. The limit of quantification was 75 fmol (1 nM/75 µl).
Series [4] relates to MDA-MB-231 cells. The series is described as follows: Drug-drug synergy experiments (MTT, combination index). Format: cell-based, human. As to conditions: IC25 ratios, 72h, CalcuSyn. As for the experimental part: Interactions (synergy, additive, antagonistic activities) between CP-B2RAs (FR173657 and NG68) and chemotherapeutic drugs (doxorubicin and paclitaxel) were evaluated using MTT standard assays. Twenty-four hours after seeding, cells were treated with CP-B2RAs, the other testing drug, or in combination. For combination testing, CP-B2RAs or the other testing drugs were added to plate in triplicate wells in ratios of IC25 (IC25A: IC25B), and cells are incubated in drug-treated medium for 72h and cell viability determined by MTT. Synergy was determined by calculating combination index (CI) value with the formula CI = (CA,X / ICx,A) + (CB,X / ICx,B), where CA,X and CB,X are concentrations of drug A and drug B used in combination to achieve x% drug effect. ICx,A and ICx,B are concentrations for single agents to achieve the same effect. A CI of less than, equal to, and more than 1 indicates synergy, additivity, and antagonism, respectively.

The test system of series [5] is MDA-MB-231 cells. As to the kind of experiment: MTT proliferation assay. Format: cell-based, human. Conditions: B2R shRNA knockdown MDA-MB-231 cells vs scrambled shRNA. The procedure:
as §1

In series [6] the test system is MDA-MB-231 cells. As to the kind of experiment: Annexin V/PI apoptosis and beta-galactosidase senescence assays. Format: cell-based, human. As for the experimental part: The effect of B2RAs on cellular senescence was assessed using the Senescence β-Galactosidase Staining Kit (Cell Signaling). MDA-MB-231 cells were plated at 500 000 cells/well in 6-well plates, and serum-starved right before the beginning of treatments. Cells were treated with and without the B2RAs at the indicated concentrations for 72 h. At the end of treatment, surviving cells were fixed with 2% formaldehyde, 0.2% glutaraldehyde for 15 min at room temperature. Fixed cells were then washed and stained with fresh senescence-associated β-galactosidase stain solution (sodium phosphate buffer, pH 6.0, containing 1mg of X-gal (5-bromo-4-chloro-3-indolyl-β-d-galactopyranoside)/ml 40 mM citric acid, 5 mM potassium ferrocyanide, 5 mM potassium ferricyanide, 150 mM NaCl, 2 mM MgCl2) at 37°C. Staining was detected by light microscopy. As a positive control for senescence, we serum starved porcine cerebral microvascular endothelial cells (pCMVEC) (kindly provided by S Chemtob) for 48 h.
MDA-MB-231 and COS-1 cells were plated at 500,000/well in 6-well plates containing medium (10% FBS/DMEM), and allowed to adhere for about 18 h. On the next day, cells were serum-starved and then treated with and without the B2RAs at the indicated concentrations for 24 h. To assess induction of apoptosis due to treatment, we used the Annexin-V-FLUOS Staining kit (Roche) according to manufacturer’s specifications. Briefly, at the end of treatments, cells were harvested, rinsed and incubated in 100 µl of Annexin-V-FLUOS labeling solution (containing 2 µl of Annexin-V-Fluos reagent and 1 µl of PI (15 µg/ml)) for 15 min at room temperature. Cells were analyzed on a FACSCanto II flow cytometer (BD Biosciences). Early stage apoptosis was measured using annexin V-Fluos (RocheMolecular Biochemicals) in conjunction with PI (Sigma) to distinguish among early apoptosis and late apoptosis/necrosis. Bar diagram showing the distribution of early, late/necrotic cell populations.

For series [7], the system named is MDA-MB-231 cells. The series is described as follows: PI staining cell cycle analysis by flow cytometry. Format: cell-based, human. Conditions: 24 h treatment; HOE 140 up to 100 μM. The procedure:
MDA-MB-231 were plated at 500,000/plate in 10 cm plates containing medium (10% FBS/DMEM), and allowed to adhere for about 18 h. Thereafter, cells were serum-starved and treated with and without the B2RAs at the indicated concentrations for 24 h. At the end of treatments, cells were harvested, rinsed and fixed with ice cold ethanol 95%, for 2 h at 4°C. Fixed cells were rehydrated with 800 µl PBS for 30 min, and then washed again with PBS to remove all traces of ethanol. Cells were treated with RNase for 30 min prior to staining. PI was added to cell suspension at a concentration of 15 µg/ml and incubated overnight at 4°C. PI staining was assessed by flow cytometry using a FACSCanto II flow cytometer (BD Biosciences).

In series [8] the test system is MDA-MB-231 cells. The series is described as follows: Western blot of cell cycle, apoptosis and p38 proteins. Format: cell-based, human. As for the experimental part:
For western blot analysis, appropriate amount of cell lysates or membrane and nuclear fractions (25–50 µg protein) were denatured, resolved on 9–12% SDS–PAGE and electrotransferred onto PVDF membranes. Blots were blocked using 5% nonfat dry milk and probed using appropriate primary antibodies in blocking buffer overnight at 4°C.

The nature of series [9]: Distribution coefficient n-octanol/PBS pH 7.4, shake flask.
Protocol: Equal volumes of octanol and PBS (137 mM NaCl, 2.7 mM KCl, 10 mM Na2HPO4, 2 mM KH2PO4, pH 7.4), were mixed and allowed to equilibrate for 24h. The layers were then separated and stored at 4°C. At testing, the compounds (200 µM) was added to 200 µl of aqueous phase and mixed with an equal volume of octanol by vortexing for 2 min. The octanol/buffer solution was centrifuged for 5 min at 1000 x g. After separation into aqueous and octanol phases, compound content of the aqueous and octanol phases was quantified by RP-HPLC (Agilent1100 series). […] All octanol/buffer distribution studies were performed in duplicate. The octanol/buffer coefficient was calculated as the ratio of octanol layer to the buffer layer.
[10] abbreviates: 24h treatment, whole-cell lysates.
Setting [11] is: Homo sapiens, MDA-MB-231, MTT assay after 72h drug exposure, means ± s.e.m., n = 6 to 8, read-out: IC50 values (cytocidal activity).

Take `C[C@H](CCC(=O)N[C@H](CCCNC(=N)N)C(=O)N[C@@H](CCCNC(=N)N)C(=O)N1CCC[C@H]1C(=O)N1C[C@H](O)C[C@H]1C(=O)NCC(=O)N[C@@H](Cc1cccs1)C(=O)N[C@@H](CO)C(=O)N1Cc2ccccc2C[C@@H]1C(=O)N1[C@H](C(=O)N[C@@H](CCCNC(=N)N)C(=O)O)C[C@@H]2CCCC[C@@H]21)[C@H]1CC[C@H]2[C@@H]3[C@H](O)C[C@@H]4C[C@H](O)CC[C@]4(C)[C@H]3C[C@H](O)[C@]12C` [Cholic-HOE 140 (NG134)]: the IC50 in series [1] (72 h) is over 100 µM. The “colony formation (antagonist effect)” value in series [2] is “concentration-responsive clonal repression”. Also, the Cellular incorporation in series [3] (15 min) is recorded as 13 pmol/10^6 cells; in series [3] (4 h), 22 pmol/10^6 cells.
For the compound `C[S+]([O-])c1ccc(-c2nc(-c3ccncc3)c(-c3ccc(F)cc3)[nH]2)cc1` (stereo not drawn) [SB203580], the “clonogenicity, inhibitor alone” value in series [2] (10 µM, 14 days) is reported as “had no effect”.
Take `N=C(N)NCCC[C@H](NC(=O)[C@@H]1C[C@@H]2CCCC[C@@H]2N1C(=O)[C@H]1Cc2ccccc2CN1C(=O)[C@H](CO)NC(=O)[C@H](Cc1cccs1)NC(=O)CNC(=O)[C@@H]1C[C@@H](O)CN1C(=O)[C@@H]1CCCN1C(=O)[C@H](CCCNC(=N)N)NC(=O)[C@@H](CCCNC(=N)N)NC(=O)CNC(=O)CNC(=O)CNC(=O)[C@@H](CCCNC(=N)N)NC(=O)[C@@H](CCCNC(=N)N)NC(=O)[C@@H](CCCNC(=N)N)NC(=O)[C@@H](CCC(N)=O)NC(=O)[C@@H](CCCNC(=N)N)NC(=O)[C@@H](CCCNC(=N)N)NC(=O)[C@@H](CCCCN)NC(=O)[C@@H](CCCCN)NC(=O)[C@@H](CCCNC(=N)N)NC(=O)CN)C(=O)O` [D-Tat-HOE 140 (NG68)] (H-G[dR][dK][dK][dR][dR][dQ][dR][dR][dR]GGG[dR]RP[Hyp]G[2Thi]S[dTic][Oic]R-OH; N-terminus and C-terminus assumed): the “colony formation (antagonist effect)” value in series [2] was “concentration-responsive clonal repression”. Moreover, the “combination index (CI)” value in series [4] (combination with doxorubicin) was “below 1”; in [4] (combination with paclitaxel), about 1. Also, the “cytostatic activity after B2R downregulation” value in [5] was “significantly attenuated”. Also, the “induction of apoptosis / senescence” value in series [6] (Annexin V and active caspase-3 positivity 24h, β-galactosidase 72h) is listed as “underwent apoptosis, but not senescence”. In addition, the cell cycle distribution result in series [7] is on record as “tend to induce G0/G1 cell cycle arrest”. For the same compound, the “expression of BAD and p27Kip1” value in series [8] (setting [10]) is “increased expression”. The “levels of MAPK and cyclin A” value in series [8] (setting [10]) was “decreased the levels of MAPK and cyclin A”. Besides, in [8] (over time), the “phosphorylation of p38” value is recorded as “significantly increased the phosphorylation”. Also, the Cellular incorporation in [3] (15 min) worked out at 5 pmol/10^6 cells; in series [3] (4 h) it was 14 pmol/10^6 cells. In series [9] (pH 7.4, Distribution coefficient log D, n-octanol/PBS (pH 7.4), shake flask, RP-HPLC quantification), this compound yielded a logD of -3.02.
`CC(=O)O[C@H]1C(=O)[C@@]2(C)[C@H]([C@H](OC(=O)c3ccccc3)[C@]3(O)C[C@H](OC(=O)[C@H](O)[C@@H](NC(=O)c4ccccc4)c4ccccc4)C(C)=C1C3(C)C)[C@]1(OC(C)=O)CO[C@@H]1C[C@@H]2O` [Paclitaxel (Taxol), Paclitaxel]: the IC50 in series [1] (setting [11]) is 10 ± 1 µM.
“DTat: vector alone; modified HIV-1 Tat peptide sequence GRKKRRQRRR in D-configuration (G[dR][dK][dK][dR][dR][dQ][dR][dR][dR])”: the “intrinsic activity of vector alone” value in series [6] (up to 100 μM, in any of the above assays) is listed as “did not exhibit intrinsic activity”.
As for `COc1cccc2c1C(=O)c1c(O)c3c(c(O)c1C2=O)C[C@@](O)(C(=O)CO)C[C@@H]3O[C@H]1C[C@H](N)[C@H](O)[C@H](C)O1` [Adriamycin (doxorubicin), doxorubicin], in series [1] (setting [11]), the IC50 amounted to 2 ± 1 µM.
In the case of `Cn1nnc2c(C(N)=O)ncn2c1=O` [Temozolomide (Temodar), Temozolomide], in series [1] (setting [11]), the IC50 was over 100 µM. Besides, the cytotoxic effect entry in [1] is given as “did not show significant cytotoxic effect”.
With `N.N.O=C([O-])C1(C(=O)[O-])CCC1.[Pt+2]` [Carboplatin], the IC50 in series [1] (MTT assay after 72h drug exposure, means ± s.e.m., n = 6 to 8, read-out: IC50 values (cytocidal activity)) was over 100 µM. In addition, in [1], the cytotoxic effect entry is “did not show significant cytotoxic effect”.
In [1] (72 h), `NC(N)=NCCC[C@@H](N)C(=O)N[C@@H](CCCN=C(N)N)C(=O)N1CCC[C@H]1C(=O)N1C[C@H](O)C[C@H]1C(=O)NCC(=O)N[C@@H](Cc1cccs1)C(=O)N[C@@H](CO)C(=O)N1Cc2ccccc2C[C@@H]1C(=O)N1[C@H](C(=O)N[C@@H](CCCN=C(N)N)C(=O)O)C[C@@H]2CCCC[C@@H]21` [HOE 140] showed an IC50 of over 100 µM. The Cellular incorporation in [3] (15 min), in series [3] (4 h) and in [3] (24 h) was 0 pmol/10^6 cells each time. Moreover, in [9] (pH 7.4), the logD was -3.06.
In the case of `O=NN(CCCl)C(=O)NCCCl` [BCNU (carmustine), carmustine], the IC50 in [1] (setting [11]) turned out to be 62 ± 1 µM.
